This passage reports MIC results from ChEMBL document CHEMBL1255267, “Reduced Susceptibility of Proteus mirabilis to triclosan” (2008).

Common to all, as to format: functional
Test [1] concerns Proteus mirabilis. In words: Antibacterial activity against Proteus mirabilis M 48 mutant after 18 hrs by Etest method. The settings on record: M 48, 18 h.
The subject of test [2] is Proteus mirabilis. The test can be described thus: Antibacterial activity against Proteus mirabilis M 21 mutant after 18 hrs by Etest method. The note with it: M 21, 18 h.
Test [3] relates to Proteus mirabilis. In words: Antibacterial activity against Proteus mirabilis M 55 mutant after 18 hrs by Etest method. The settings on record: M 55, 18 h.
The test system of test [4] is Proteus mirabilis. In words: Antibacterial activity against Proteus mirabilis M 26 mutant after 18 hrs by Etest method. The settings on record: M 26, 18 h.
The test system of test [5] is Proteus mirabilis. In words: Antibacterial activity against Proteus mirabilis M 42 mutant after 18 hrs by Etest method. The settings on record: M 42, 18 h.
Test [6] relates to Proteus mirabilis. In words: Antibacterial activity against Proteus mirabilis M 31 mutant after 18 hrs by Etest method. The settings on record: M 31, 18 h.
For test [7], the system named is Proteus mirabilis. In words: Antibacterial activity against Proteus mirabilis NP37 after 18 hrs by Etest method. The settings on record: NP37, 18 h.
The subject of test [8] is Proteus mirabilis. In words: Antibacterial activity against Proteus mirabilis NP43 after 18 hrs by Etest method. The settings on record: NP43, 18 h.
Test [9] concerns Proteus mirabilis. In words: Antibacterial activity against Proteus mirabilis M 17 mutant after 18 hrs by Etest method. The settings on record: M 17, 18 h.
For test [10], the system named is Proteus mirabilis. The test can be described thus: Antibacterial activity against Proteus mirabilis M 40 mutant after 18 hrs by Etest method. The note with it: M 40, 18 h.
For test [11], the system named is Proteus mirabilis. The test can be described thus: Antibacterial activity against Proteus mirabilis M 29 mutant after 18 hrs by Etest method. The note with it: M 29, 18 h.
For test [12], the system named is Proteus mirabilis. In words: Antibacterial activity against Proteus mirabilis M 12 mutant after 18 hrs by Etest method. The note with it: M 12, 18 h.
In test [13] the test system is Escherichia coli. In words: Antibacterial activity against Escherichia coli 10418 after 18 hrs by Etest method. The settings on record: Escherichia coli, 10418, 18 h.
Test [14] has as its system Proteus mirabilis. In words: Antibacterial activity against Proteus mirabilis NP55 after 18 hrs by Etest method. The settings on record: NP55, 18 h.
Test [15] deals with Proteus mirabilis. The test can be described thus: Antibacterial activity against Proteus mirabilis M 19 mutant after 18 hrs by Etest method. The settings on record: M 19, 18 h.
Test [16] deals with Proteus mirabilis. The test can be described thus: Antibacterial activity against Proteus mirabilis M 35 mutant after 18 hrs by Etest method. The settings on record: M 35, 18 h.
The subject of test [17] is Proteus mirabilis. In words: Antibacterial activity against Proteus mirabilis NP14 after 18 hrs by Etest method. The settings on record: NP14, 18 h.
The subject of test [18] is Proteus mirabilis. In words: Antibacterial activity against Proteus mirabilis M 44 mutant after 18 hrs by Etest method. The settings on record: M 44, 18 h.
Test [19] deals with Proteus mirabilis. In words: Antibacterial activity against Proteus mirabilis B2 after 18 hrs by Etest method. The settings on record: B2, 18 h.
For test [20], the system named is Proteus mirabilis. In words: Antibacterial activity against Proteus mirabilis M 23 mutant after 18 hrs by Etest method. The note with it: M 23, 18 h.

In brackets after ≈: the same amount, converted by molar mass.

For `CC1(C)S[C@@H]2[C@H](NC(=O)[C@H](N)c3ccccc3)C(=O)N2[C@H]1C(=O)O` [AMPICILLIN], the MIC (commonly the smallest concentration in the dilution series that meets the test's criterion for growth inhibition) in test [1] is greater than 256 µg/mL; in test [2], 16 µg/mL (≈ 45.8 µM); in test [3], greater than 256 µg/mL; in test [4] it was greater than 256 µg/mL; in test [5], greater than 256 µg/mL; in test [6], greater than 256 µg/mL. Moreover, the MIC was greater than 256 µg/mL in test [7]; 0.4 µg/mL (≈ 1.14 µM) in [8]; 0.19 µg/mL (≈ 0.544 µM) in test [9]; greater than 256 µg/mL in test [10]; greater than 256 µg/mL in [11]; 0.13 µg/mL (≈ 0.372 µM) in test [12]. Moreover, the minimum inhibitory concentration (MIC) is 0.5 µg/mL (≈ 1.43 µM) in [13]; greater than 256 µg/mL in test [14]; 12 µg/mL (≈ 34.3 µM) in test [15]; greater than 256 µg/mL in [16]; 16 µg/mL (≈ 45.8 µM) in [17]; greater than 256 µg/mL in test [18]. Also, the figures for the MIC in test [19] and in test [20] were greater than 256 µg/mL and 12 µg/mL (≈ 34.3 µM), respectively.

On to `CC1=C(C(=O)O)N2C(=O)[C@@H](NC(=O)[C@H](N)c3ccccc3)[C@H]2SC1` [CEPHALEXIN ANHYDROUS], for which the MIC is 3 µg/mL (≈ 8.64 µM) in test [1]; 3 µg/mL (≈ 8.64 µM) in [2]; 4 µg/mL (≈ 11.5 µM) in test [3]; 3 µg/mL (≈ 8.64 µM) in [4]; 4 µg/mL (≈ 11.5 µM) in test [5]; 3 µg/mL (≈ 8.64 µM) in test [6]. The minimal inhibitory concentration (MIC) in [7] worked out at 4 µg/mL (≈ 11.5 µM); in [8], 4 µg/mL (≈ 11.5 µM); in [9], 1 µg/mL (≈ 2.88 µM); in test [10], 3 µg/mL (≈ 8.64 µM); in test [11], 2 µg/mL (≈ 5.76 µM); in test [12] it was 1.5 µg/mL (≈ 4.32 µM). For the same molecule, the MIC in test [13] was 2 µg/mL (≈ 5.76 µM); in test [14], 4 µg/mL (≈ 11.5 µM); in [15] it was 4 µg/mL (≈ 11.5 µM); in [16] it was 3 µg/mL (≈ 8.64 µM); in [17], 3 µg/mL (≈ 8.64 µM); in test [18] it was 4 µg/mL (≈ 11.5 µM). For the same molecule, the results for the MIC in [19] and in test [20] were 6 µg/mL (≈ 17.3 µM) and 3 µg/mL (≈ 8.64 µM), respectively.

On to `O=C(O)c1cn(C2CC2)c2cc(N3CCNCC3)c(F)cc2c1=O` [CIPROFLOXACIN], for which the MIC in test [1] was determined as 0.02 µg/mL (≈ 0.0604 µM); in test [2], 0.05 µg/mL (≈ 0.151 µM); in test [3], 0.02 µg/mL (≈ 0.0604 µM); in test [4], 0.012 µg/mL (≈ 0.0362 µM); in [5] it was 0.016 µg/mL (≈ 0.0483 µM); in [6] it was 0.008 µg/mL (≈ 0.0241 µM). For the same molecule, the MIC in test [7] was 0.02 µg/mL (≈ 0.0604 µM); in test [8], 0.01 µg/mL (≈ 0.0302 µM); in [9], 0.006 µg/mL (≈ 0.0181 µM); in test [10], 0.012 µg/mL (≈ 0.0362 µM); in test [11], 0.008 µg/mL (≈ 0.0241 µM); in test [12], 0.006 µg/mL (≈ 0.0181 µM). Besides, the MIC in test [14] worked out at 0.016 µg/mL (≈ 0.0483 µM); in [15] it was 0.05 µg/mL (≈ 0.151 µM); in [16], 0.016 µg/mL (≈ 0.0483 µM); in test [17], 0.06 µg/mL (≈ 0.181 µM); in test [18] it was 0.03 µg/mL (≈ 0.0905 µM); in test [19] it was 0.02 µg/mL (≈ 0.0604 µM). In test [20], this molecule came in with an MIC of 0.05 µg/mL (≈ 0.151 µM).

Take `CCn1cc(C(=O)O)c(=O)c2ccc(C)nc21` [NALIDIXIC ACID]: the MIC amounted to 1.5 µg/mL (≈ 6.46 µM) in test [1]; 3 µg/mL (≈ 12.9 µM) in [2]; 1.5 µg/mL (≈ 6.46 µM) in test [3]; 1.5 µg/mL (≈ 6.46 µM) in test [4]; 2 µg/mL (≈ 8.61 µM) in test [5]; 1.5 µg/mL (≈ 6.46 µM) in test [6]. The MIC in test [7] amounted to 4 µg/mL (≈ 17.2 µM); in [8], 2 µg/mL (≈ 8.61 µM); in [9], 2 µg/mL (≈ 8.61 µM); in [10], 1.5 µg/mL (≈ 6.46 µM); in test [11], 2 µg/mL (≈ 8.61 µM); in test [12] it was 1.5 µg/mL (≈ 6.46 µM). Further, the MIC in test [13] worked out at 0.38 µg/mL (≈ 1.64 µM); in [14], 3 µg/mL (≈ 12.9 µM); in test [15], 2 µg/mL (≈ 8.61 µM); in test [16], 2 µg/mL (≈ 8.61 µM); in test [17], 3 µg/mL (≈ 12.9 µM); in test [18], 1.5 µg/mL (≈ 6.46 µM). Besides, the MIC in test [19] and in [20] was 2 µg/mL (≈ 8.61 µM) in each case.
